{"source": "patent US11590117B2", "about": "“Treatment of a hematologic malignancy with 2-(4-chlorophenyl)-n-((2-(2,6-dioxopiperidin-3-yl)-1-oxoisoindolin-5-yl)methyl)-2,2-difluoroacetamide” (priority 2016, dated 2023)", "assay_in_all_cases": "IncuCyte live cell imaging of cell viability, Red-labeled cell line", "assay_type_in_all_cases": "cell-based", "key": {"AML-193": {"test_system": "AML-193", "conditions": "Homo sapiens, Red-labeled AML-193, read-out: Inhibition of Cell Viability EC50", "method": "(§1) Derivation of Red-labeled Acute Myeloid Leukemia Cell Lines: Twelve cell lines, including AML-193, HL-60, KG-1, ML-2, MOLM-13, MV-4-11, NOMO-1, OCI-AML2, OCI-AML3, SIG-M5, TF-1, and THP-1, were stably transduced with Red lentivirus. Cells were plated in 6-well plates in growth media, incubated with 8 µg/mL polybrene (EMD Millipore Cat no. TR-1003-G) followed by infection with CellPlayer™ NucLight™ Red-lentiviral particles (Essen Biosciences Cat no. 4478) at a multiplicity of infectivity (MOI) of 0.5 to 2.5 for 24 hours. MOI refers to the ratio of virus particles to cells. Virus-containing media was replaced with fresh growth media and incubated for an additional 24 to 48 hours, followed by selection with Zeocin (500 to 2000 μg/mL), a derivative of bleomycin (Life Technologies-Invitrogen Cat no. R250-01). Cells were selected with fresh Zeocin every 3 to 4 days for 3 to 8 weeks. Cells were periodically viewed using fluorescent microscopy for nuclear-restricted red fluorescence. Zeocin selection was terminated once the population was confirmed to stably fluoresce red. All Red-labeled cell lines were acclimated to EMEM containing 20% FBS, with or without GM-CSF supplementation, allowing for optimal live cell imaging.\n(§2) Incubation of Cell Cultures with Compound 1: Compound 1 was provided for studies by Celgene chemistry group at a stock concentration of 30 mM in 20 μL dimethyl sulfoxide (DMSO) frozen. Costar 96-well cell culture plates (Corning Cat no. 3595) were coated with 100 μL of 10 µg/mL fibronectin (Sigma-Aldrich Cat no. F1141) for 4 hours at 37° C. and immediately used or refrigerated overnight for later use. Cells (3000 to 6000 cells) were plated in growth medi in fibronectin-coated 96-well plates and incubated for a minimum of a few hours to overnight. Cells were incubated with a 12-point concentration response in triplicate with Compound 1 ([…]) including DMSO and Media controls. A 3-fold serial dilution of Compound 1 starting from a concentration of 200 μM in 0.6% DMSO (diluted in Media) was performed. For most sensitive cell lines, a 3-fold serial dilution of Compound 1 starting from a concentration of 20 μM in 0.6% DMSO (diluted in media) was performed. A volume of 5 μL or 10 μL for each dilution was added to 100 μL or 200 μL cells, respectively (0.3% DMSO final) and incubated for live cell imaging.\n(§3) Live Cell Imaging on IncuCyte Zoom: Following incubation of cells with Compound 1, diluted Caspase 3/7 reagent (Essen Biosciences Cat no. 4440) is added to each well. The Caspase-3/7 reagent couples the activated caspase-3/7 recognition motif (DEVD) to NucView™488, a DNA intercalating dye. The cleavage of substrate by activated caspase-3/7 results in the release of the DNA dye and green fluorescent staining of nuclear DNA. This allows imaging of cells undergoing caspase-3/7 mediated apoptosis over time. Caspase-3/7 activation was quantified using the IncuCyte™ ZOOM basic analyzer. Red-labeled cell lines were also imaged over time using the IncuCyte™ ZOOM basic analyzer, for determination of both cell doubling time and Compound 1 effect on cell viability. Experiments were performed at least two times in each cell line.\n(§4) Next, a 4 parameter log-logistic model was used to determine relative EC50 at each time point by the ‘drm’ function from the R ‘drc’ package (Ritz C, Streibig J C. Bioassay Analysis using R. J. Statist. Software 2005; 12(5):1-22). Goodness of fit was measured by R squared (coefficient of determination or the amount of variation explained by the model fit) of ≥80%, and EC50 parameter was assessed by having a ratio of standard error to the parameter of ≤40%, and the presence of at least one concentration point above and below the reported EC50.\n(§5) Twelve Red-labeled human AML cell lines, established as described above, were incubated with Compound 1 dose range (0 to 10 μM) and Red fluorescence or Object count was imaged over time, as described above. […]"}, "THP-1": {"test_system": "THP-1", "conditions": "Homo sapiens; Red-labeled THP-1; 96 hr; read-out: Inhibition of Cell Viability EC50", "method": "as §1, §2, §3, §4, §5"}, "Nomo-1": {"test_system": "Nomo-1", "conditions": "Homo sapiens, Red-labeled NOMO-1, read-out: Inhibition of Cell Viability EC50", "method": "as §1, §2, §3, §4, §5"}, "MOLM-13": {"test_system": "MOLM-13", "conditions": "Homo sapiens, Red-labeled MOLM-13, read-out: Inhibition of Cell Viability EC50", "method": "as §1, §2, §3, §4, §5"}, "TF-1": {"test_system": "TF-1", "conditions": "Homo sapiens, Red-labeled TF-1, read-out: Inhibition of Cell Viability EC50", "method": "as §1, §2, §3, §4, §5"}, "SIG-M5": {"test_system": "SIG-M5", "conditions": "Homo sapiens, read-out: Inhibition of Cell Viability EC50", "method": "as §1, §2, §3, §4, §5"}, "ML-2": {"test_system": "ML-2", "conditions": "Homo sapiens, Red-labeled ML-2, read-out: Inhibition of Cell Viability EC50", "method": "as §1, §2, §3, §4, §5"}, "KG-1": {"test_system": "KG-1", "conditions": "Homo sapiens, Red-labeled KG-1, read-out: Inhibition of Cell Viability EC50", "method": "as §1, §2, §3, §4, §5"}, "OCI-AML3": {"test_system": "OCI-AML3", "conditions": "Homo sapiens, read-out: Inhibition of Cell Viability EC50", "method": "as §1, §2, §3, §4, §5"}, "MV4-11": {"test_system": "MV4-11", "conditions": "Homo sapiens, Red-labeled MV4-11, read-out: Inhibition of Cell Viability EC50", "method": "as §1, §2, §3, §4, §5"}, "HL-60": {"test_system": "HL-60", "conditions": "Homo sapiens, Red-labeled HL-60, read-out: Inhibition of Cell Viability EC50", "method": "as §1, §2, §3, §4, §5"}, "OCI-AML2": {"test_system": "OCI-AML2", "conditions": "Homo sapiens, read-out: Inhibition of Cell Viability EC50", "method": "as §1, §2, §3, §4, §5"}}, "note": "Where two headings read alike, the source gives them in different places.", "data": [{"smiles": "O=C1CCC(N2Cc3cc(CNC(=O)C(F)(F)c4ccc(Cl)cc4)ccc3C2=O)C(=O)N1", "note": "(stereo not drawn) [Compound 1, 2-(4-chlorophenyl)-N-((2-(2,6-dioxopiperidin-3-yl)-1-oxoisoindolin-5-yl)methyl)-2,2-difluoroacetamide]", "values": [{"measurement": "EC50", "setting": "AML-193; 24 hr", "value": 10, "unit": "nM"}, {"measurement": "EC50", "setting": "AML-193; 48 hr", "value": 4, "unit": "nM"}, {"measurement": "EC50", "setting": "AML-193; 72 hr", "value": 3, "unit": "nM"}, {"measurement": "EC50", "setting": "AML-193; 96 hr", "value": 2, "unit": "nM"}, {"measurement": "EC50", "setting": "THP-1", "value": 61, "unit": "nM"}, {"measurement": "EC50", "setting": "Nomo-1; 48 hr", "value": 19, "unit": "nM"}, {"measurement": "EC50", "setting": "Nomo-1; 72 hr", "value": 17, "unit": "nM"}, {"measurement": "EC50", "setting": "Nomo-1; 96 hr", "value": 17, "unit": "nM"}, {"measurement": "EC50", "setting": "MOLM-13; 48 hr", "value": 143, "unit": "nM"}, {"measurement": "EC50", "setting": "MOLM-13; 72 hr", "value": 208, "unit": "nM"}, {"measurement": "EC50", "setting": "MOLM-13; 96 hr", "value": 248, "unit": "nM"}, {"measurement": "EC50", "setting": "TF-1; 48 hr", "value": 30, "unit": "nM"}, {"measurement": "EC50", "setting": "TF-1; 72 hr", "value": 36, "unit": "nM"}, {"measurement": "EC50", "setting": "TF-1; 96 hr", "value": 58, "unit": "nM"}, {"measurement": "EC50", "setting": "SIG-M5; 72 hr", "value": 156, "unit": "nM"}, {"measurement": "EC50", "setting": "SIG-M5; 96 hr", "value": 178, "unit": "nM"}, {"measurement": "EC50", "setting": "ML-2; 72 hr", "value": 4, "unit": "nM"}, {"measurement": "EC50", "setting": "ML-2; 96 hr", "value": 4, "unit": "nM"}, {"measurement": "EC50", "setting": "KG-1; 48 hr", "value": 7, "unit": "nM"}, {"measurement": "EC50", "setting": "KG-1; 72 hr", "value": 7, "unit": "nM"}, {"measurement": "EC50", "setting": "KG-1; 96 hr", "value": 7, "unit": "nM"}, {"measurement": "EC50", "setting": "OCI-AML3; OCI-AML-3, 72 hr", "value": 180, "unit": "nM"}, {"measurement": "EC50", "setting": "OCI-AML3; OCI-AML-3, 96 hr", "value": 186, "unit": "nM"}, {"measurement": "EC50", "setting": "MV4-11; 48 hr", "value": 40, "unit": "nM"}, {"measurement": "EC50", "setting": "MV4-11; 72 hr", "value": 27, "unit": "nM"}, {"measurement": "EC50", "setting": "MV4-11; 96 hr", "value": 26, "unit": "nM"}, {"measurement": "EC50", "setting": "HL-60; 48 hr", "value": 9, "unit": "nM"}, {"measurement": "EC50", "setting": "HL-60; 72 hr", "value": 7, "unit": "nM"}, {"measurement": "EC50", "setting": "HL-60; 96 hr", "value": 6, "unit": "nM"}, {"measurement": "EC50", "setting": "OCI-AML2; 24 hr", "value": 387, "unit": "nM"}, {"measurement": "EC50", "setting": "OCI-AML2; 48 hr", "value": 83, "unit": "nM"}, {"measurement": "EC50", "setting": "OCI-AML2; 72 hr", "value": 42, "unit": "nM"}, {"measurement": "EC50", "setting": "OCI-AML2; 96 hr", "value": 40, "unit": "nM"}]}]}
